According to US10456509B2, “Chlorhexidine gluconate compositions, resin systems and articles” (3M INNOVATIVE PROPERTIES COMPANY, priority 2012, dated 2019):
Read-outs that look alike come from different tables or passages of the source.

Experiment: Solubility Screening of CHG in vehicles, Vacuum Method
Experimental: Solubility Screening. Screening tests were conducted to determine the solubility of CHG in a wide variety of vehicles. Tests were conducted using the Vacuum Method and the Lyophilizing Method.
Vacuum Method. […] The flask was put in a 60° C. oil bath and stirred with a magnetic stir bar. […] In those cases, after nearly all the water was removed, additional vehicle was added to bring the final weight to 50 grams. The resulting concentration of CHG and residual water were determined. Also, the final state of the solution was qualitatively evaluated to determine if the mixture was transparent and apparently homogenous, or clearly inhomogeneous.

[1] = CHG 10 wt. % in vehicle, 23-50° C., Vacuum Method
[2] = CHG 5 wt. % in vehicle, 23-50° C., Vacuum Method
[3] = summary of Tables 1a-3b, Vacuum Method

OCCOCCOCCO [Triethylene glycol]
Final State: Homogeneous

COCCOCCO [Diethyleneglycol monomethyl ether]
Final State [1]: Homogeneous

CC(C)OC(=O)[C@H](O)[C@@H](O)C(=O)OC(C)C [Diisopropyl-L-Tartrate]
Final State [1]: Inhomogeneous

CC(C)(O)CCO [3-methyl-1,3-butanediol]
Final State (CHG 1 wt. % in vehicle, 23° C., Vacuum Method): Inhomogeneous
Final State (CHG 1 wt. % in vehicle, 50° C., Vacuum Method): Homogeneous
Final State (CHG 2.5 wt. % in vehicle, 23° C., Vacuum Method): Inhomogeneous
Final State (CHG 2.5 wt. % in vehicle, 50° C., Vacuum Method): Homogeneous
Final State [2]: Inhomogeneous
Final State [1]: Inhomogeneous

CCCCCCCCO [Example 1-octanol, 1-octanol]
Final State [1]: Inhomogeneous

OC1CCCC(O)C1 (stereo not drawn) [1,3-cyclohexanediol]
Final State (CHG 6 wt. % in vehicle, 23° C., Vacuum Method): Inhomogeneous
Final State (CHG 6 wt. % in vehicle, 50° C., Vacuum Method): Homogeneous
Final State (CHG 10 wt. % in vehicle, 23° C., Vacuum Method): Inhomogeneous
Final State (CHG 10 wt. % in vehicle, 50° C., Vacuum Method): Homogeneous

CCCCOC(=O)[C@H](O)[C@@H](O)C(=O)OCCCC [Dibutyl-L-Tartrate]
Final State: Homogeneous

CCCCCCCC(=O)OCC(O)CO (stereo not drawn) [Glyceryl monocaprylate]
Final State: Homogeneous

CCOC(=O)[C@@H](O)[C@H](O)C(=O)OCC [Diethyl-D-Tartrate]
Final State [1]: Homogeneous

CCOC(=O)C(=O)OCC [Oxalic Acid Diethyl Ester]
Final State: Inhomogeneous

COCCOCCOC [Diethyleneglycol Dimethyl Ether]
Final State: Inhomogeneous

OCC1(O)COC(O)(CO)CO1 (stereo not drawn) [1,3-dihydroxyacetone dimer]
Final State [1]: Homogeneous

CC(O)CCC(C)O (stereo not drawn) [2,5-hexanediol]
Final State [1]: Inhomogeneous
CHG solubility in vehicle (trend) [3]: do not provide good solubility

CC(C)OC(=O)[C@@H](O)[C@H](O)C(=O)OC(C)C [Diisopropyl-D-Tartrate]
Final State: Inhomogeneous

OCC(O)CO [Glycerol]
Final State: Homogeneous

OC1CCC(O)CC1 (stereo not drawn) [1,4-cyclohexanediol]
Final State [1]: Inhomogeneous
CHG solubility in vehicle (trend) [3]: do not provide good solubility

CC(C)CCCCCCCCCCCCCCC(=O)OCC(O)CO (stereo not drawn) [Glyceryl monoisostearate]
Final State (CHG 10 wt. % in vehicle, 23-60° C., Vacuum Method): Homogeneous
Final State (CHG 16 wt. % in vehicle, 23-60° C., Vacuum Method): Homogeneous
Final State (CHG 20 wt. % in vehicle, 60° C., Vacuum Method): Homogeneous

CCOCCOCCO [Diethyleneglycol monoethyl ether]
Final State (CHG 2.5 wt. % in vehicle, 23-50° C., Vacuum Method): Homogeneous
Final State [2]: Inhomogeneous
Final State [1]: Inhomogeneous

OCCCCO [1,4-butanediol]
CHG solubility in vehicle (trend): provides solubility
Final State: Homogeneous

CCOC(=O)[C@H](O)[C@@H](O)C(=O)OCC [Diethyl-L-Tartrate]
Final State: Homogeneous

Dimer Diol
Final State: Inhomogeneous

Sorbeth-6
Final State: Homogeneous

Decaglyceryl tristearate
Final State: Homogeneous

CCCCOCCOCCO [Diethyleneglycol Monobutyl Ether]
Final State: Inhomogeneous

Polyglycerol-2-Triisostearate
Final State: Inhomogeneous

OCCCCC(O)CO (stereo not drawn) [1,2,6-trihydroxyhexane]
Final State [1]: Homogeneous

CC(C)(O)C(C)(C)O [2,3-dimethyl-2,3-butanediol]
CHG solubility in vehicle (trend): do not always impart solubility
Final State: Inhomogeneous

CCCCC(CC)COCC(O)CO (stereo not drawn) [Ethylhexyl glycerin]
Final State: Homogeneous

CCCC(O)CO (stereo not drawn) [1,2-pentanediol]
Final State (CHG 50 wt. % in vehicle, 23-50° C., Vacuum Method): Homogeneous

CCCCCCCCCCCC(=O)OCC(O)CO (stereo not drawn) [Glyceryl monolaurate]
Final State (CHG 20 wt. % in vehicle, 75° C., Vacuum Method): Homogeneous

Decaglyceryl pentaoleate
Final State: Inhomogeneous

CCCCCCCCCCCCCCCCCC(=O)OCC(O)CO (stereo not drawn) [Glyceryl monostearate]
Final State (CHG 10 wt. % in vehicle, 80° C., Vacuum Method): Homogeneous

CC(O)C(C)O (stereo not drawn) [2,3-butanediol]
Final State: Homogeneous

OCCCCCO [1,5-pentanediol]
CHG solubility in vehicle (trend): too widely separated to impart good solubility
Final State: Inhomogeneous
